Reference: ChEMBL document CHEMBL1201862, “PubChem BioAssay data set” (2004)
Calls of active or inactive are those of the source.

Legend:
HEK293 = test: EBV LMP1 TES2 canonical NF-kB signalling blockers – cell-based, HEK293, luciferase, cherry-pick, dose response (AID 588343); format: functional; conditions: Homo sapiens
Paired box protein Pax-8 = Paired box protein Pax-8 (Homo sapiens, UniProt Q06710); test: PAX8 transcriptional activity inhibition in RMG-I – RMG-I cells, luciferase, cherry-pick, dose response (AID 687027); format: functional, cell-based;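 note: luciferase reporter driven by Pax8 target thyroperoxidase promoter measured by SteadyGlo luminescence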
BJ [1] = test: growth inhibition of engineered Ras-driven BJ cells – cell-based, alamar blue fluorescence, cherrypicked samples, dose response (AID 2631); format: functional; conditions: Homo sapiens;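 note: confirmatory dose-response assay in RAS-dependent BJ fibroblasts engineered with TERT, LT and ST, with cytotoxicity read by fluorescence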
BJ [2] = test: BJ-TERT fibroblast viability loss – cell-based, RAS-independent, luminescence, dose response (AID 1933); format: functional; conditions: Homo sapiens
Protein RecA = target: T1, Protein RecA (Mycobacterium tuberculosis, UniProt P9WHJ3); test: Fluorescence Cell-Free Homogeneous Dose Retest to Identify Inhibitors of RecA-Intein Splicing Activity. [Related pubchem assays (depositor defined):AID2097, AID2223, AID489010, AID492950]; format: functional
T1 sequence (P9WHJ3 whole entry): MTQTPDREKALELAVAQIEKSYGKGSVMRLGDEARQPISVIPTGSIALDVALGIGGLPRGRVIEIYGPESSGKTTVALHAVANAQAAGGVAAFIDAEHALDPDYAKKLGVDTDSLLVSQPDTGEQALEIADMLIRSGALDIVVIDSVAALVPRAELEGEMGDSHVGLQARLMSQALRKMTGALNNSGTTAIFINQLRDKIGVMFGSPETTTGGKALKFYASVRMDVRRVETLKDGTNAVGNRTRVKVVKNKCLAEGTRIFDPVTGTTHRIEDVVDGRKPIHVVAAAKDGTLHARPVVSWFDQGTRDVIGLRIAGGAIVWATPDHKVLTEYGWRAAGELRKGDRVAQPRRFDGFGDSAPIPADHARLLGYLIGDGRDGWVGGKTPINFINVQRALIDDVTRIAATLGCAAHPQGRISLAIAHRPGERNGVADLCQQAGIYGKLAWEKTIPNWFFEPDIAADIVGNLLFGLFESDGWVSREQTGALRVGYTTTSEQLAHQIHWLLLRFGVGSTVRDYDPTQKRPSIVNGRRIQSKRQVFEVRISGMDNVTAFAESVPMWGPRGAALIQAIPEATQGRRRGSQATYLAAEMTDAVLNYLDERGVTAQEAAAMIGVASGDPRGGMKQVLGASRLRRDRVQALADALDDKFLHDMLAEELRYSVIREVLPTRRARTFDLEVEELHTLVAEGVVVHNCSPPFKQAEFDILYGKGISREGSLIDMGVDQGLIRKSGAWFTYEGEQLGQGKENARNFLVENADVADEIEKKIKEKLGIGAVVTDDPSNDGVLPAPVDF

INS1 = test: INS-1E survival protection against cytokine death – cell-based, luminescence, retest, dose response (AID 449756); format: functional; conditions: Rattus norvegicus;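 note: cell death triggered by IL-1 beta plus TNF-alpha plus IFN-gamma mixture; protective hits raise ATP signal compared with cytokine alone wells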
[3] = target: T2, Replicative DNA helicase DnaB (Mycobacterium tuberculosis, UniProt P9WMR3); test: DnaB intein splicing inhibitors, dose response, biochemical, cell-free fluorescence (AID 449749); format: functional
T2 sequence (P9WMR3 whole entry): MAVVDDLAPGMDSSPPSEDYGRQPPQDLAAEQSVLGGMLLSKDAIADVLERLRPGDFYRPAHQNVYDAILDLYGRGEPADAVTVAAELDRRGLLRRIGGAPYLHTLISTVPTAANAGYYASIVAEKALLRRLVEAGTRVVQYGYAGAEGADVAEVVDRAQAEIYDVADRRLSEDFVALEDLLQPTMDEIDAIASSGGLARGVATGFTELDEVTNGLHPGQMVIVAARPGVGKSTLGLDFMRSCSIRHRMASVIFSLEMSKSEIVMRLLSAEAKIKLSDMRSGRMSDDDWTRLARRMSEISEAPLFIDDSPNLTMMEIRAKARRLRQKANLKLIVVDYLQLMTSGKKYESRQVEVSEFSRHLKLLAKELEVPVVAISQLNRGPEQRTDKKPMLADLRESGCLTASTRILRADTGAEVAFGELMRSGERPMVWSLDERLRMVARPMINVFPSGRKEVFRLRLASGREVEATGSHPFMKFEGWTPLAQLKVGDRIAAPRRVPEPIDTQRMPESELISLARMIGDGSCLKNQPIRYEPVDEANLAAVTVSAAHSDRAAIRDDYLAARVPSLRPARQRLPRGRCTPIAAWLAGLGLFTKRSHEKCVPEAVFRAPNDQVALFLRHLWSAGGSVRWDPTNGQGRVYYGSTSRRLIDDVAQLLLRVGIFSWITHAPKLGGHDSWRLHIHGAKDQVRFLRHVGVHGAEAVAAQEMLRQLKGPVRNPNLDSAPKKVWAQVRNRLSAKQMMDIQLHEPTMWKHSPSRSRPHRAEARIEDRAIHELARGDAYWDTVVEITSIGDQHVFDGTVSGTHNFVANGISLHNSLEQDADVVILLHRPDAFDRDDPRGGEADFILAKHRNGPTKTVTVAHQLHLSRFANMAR

cells = format: functional, cell-based; conditions: HEK-CNG
[4] = DRD fibroblast viability loss – cell-based, non-viral oncogenic, luminescence, dose response (AID 1934); format: functional; conditions: Homo sapiens
BJ [5] = test: BJ-TERT-LT-ST fibroblast viability loss – cell-based, RAS-independent, luminescence, dose response (AID 1935); format: functional; conditions: Homo sapiens;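 note: BJ fibroblasts immortalized with TERT plus LT and ST oncogenes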
Galanin receptor type 3 = Galanin receptor type 3 (Homo sapiens, UniProt O60755); test: Fluorescence-based cell-based primary high throughput dose response assay to identify antagonists of the Galanin Receptor 3 (GalR3).; format: functional
BJ [6] = test: cells; format: functional, cell-based; conditions: Homo sapiens
DNA topoisomerase = DNA topoisomerase (Yersinia pestis, UniProt A0A2S9PM60); test: Yersinia topoisomerase I cleavage product accumulation – biochemical, cherry-pick, dose response (AID 588525)
[7] = NIH-3T3 fibroblast cytotoxicity, dose response, cytotoxicity control, cell-based, fluorescence, Alamar Blue, secondary assay (AID 2327); format: functional;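 note: NIH-3T3 mouse fibroblasts cultured with fluconazole at 8 µg/mL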
Beta-galactosidase = Beta-galactosidase (Escherichia coli, UniProt Q8VNN2); format: functional
HeLa = test: Cytotoxicity counterscreen assay for transcriptional activators of heat shock protein 70 (Hsp70). [Related pubchem assays: 1203, 1252 ]; format: functional; conditions: Homo sapiens;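 note: cells exposed to compound for 16 hours before readout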
Beta Lactamase = Beta Lactamase (Pseudomonas aeruginosa, UniProt Q932Y6); test: BLA reporter interference, concentration series – BLA reporter cells, FRET fluorescence, artefact control for TLR9-MyD88 binding inhibitor project, dose response (AID 588341); format: cell-based;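 note: cell based assay in CHO-K1 cells stably expressing beta-lactamase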
[8] = target: T3, Delta-type opioid receptor (Homo sapiens, UniProt P41143); test: HTS Image-Based Screen for Antagonists of the DOR Receptor. [Related pubchem assays (depositor defined):AID1777, AID1785, AID1786, AID2133]; format: functional
[9] = fluconazole-exposed Candida albicans growth modulators – fluorescence, retest, confirmation (AID 2467); format: functional, cell-based
[10] = target: T4, Kappa-type opioid receptor (Homo sapiens, UniProt P41145); format: functional
[11] = target: G-protein coupled receptor 55 (Homo sapiens, UniProt Q9Y2T6); test: inhibition of LPI-stimulated GPR55 beta-arrestin translocation – imaging, U2OS, beta-arrestin-GFP, LPI agonist, primary screen (AID 2013); format: functional;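 note: antagonist potency measured as reduced agonist-driven arrestin aggregation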
Mu-type opioid receptor = Mu-type opioid receptor (Homo sapiens, UniProt P35372); test: HTS Image-Based Screen for Agonists of the MOR Receptor. [Related pubchem assays (depositor defined):AID1777, AID1785, AID1786, AID2133]; format: functional;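 note: imaging of beta-arrestin GFP recruitment into spots after receptor activation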
[12] = target: T3, Delta-type opioid receptor; test: HTS Image-Based Screen for Agonists of the DOR Receptor. [Related pubchem assays (depositor defined):AID1777, AID1786, AID2133]; format: functional
CHO = CHO cell viability loss, potency – luminescence, cytotoxicity control for TLR9-MyD88 binding inhibitor project, dose response (AID 588339); format: functional, cell-based, hamster; conditions: Cricetulus griseus;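 note: CHO cells stably coexpressing TLR9 and MyD88 fusions from primary screen; compound exposure lasted 48 hours before viability readout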
[13] = target: T4, Kappa-type opioid receptor; format: functional; remark: listed apart in the source

T4 sequence (P41145 whole entry): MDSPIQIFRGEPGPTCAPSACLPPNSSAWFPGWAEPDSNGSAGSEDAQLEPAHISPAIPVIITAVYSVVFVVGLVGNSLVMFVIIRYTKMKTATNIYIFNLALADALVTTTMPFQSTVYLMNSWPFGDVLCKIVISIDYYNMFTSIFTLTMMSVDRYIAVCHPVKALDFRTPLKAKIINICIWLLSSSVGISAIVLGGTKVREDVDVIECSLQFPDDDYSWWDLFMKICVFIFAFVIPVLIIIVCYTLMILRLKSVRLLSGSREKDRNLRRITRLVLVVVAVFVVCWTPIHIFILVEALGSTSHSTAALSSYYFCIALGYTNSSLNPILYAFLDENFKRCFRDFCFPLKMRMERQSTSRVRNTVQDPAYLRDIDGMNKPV
T3 sequence (P41143 whole entry): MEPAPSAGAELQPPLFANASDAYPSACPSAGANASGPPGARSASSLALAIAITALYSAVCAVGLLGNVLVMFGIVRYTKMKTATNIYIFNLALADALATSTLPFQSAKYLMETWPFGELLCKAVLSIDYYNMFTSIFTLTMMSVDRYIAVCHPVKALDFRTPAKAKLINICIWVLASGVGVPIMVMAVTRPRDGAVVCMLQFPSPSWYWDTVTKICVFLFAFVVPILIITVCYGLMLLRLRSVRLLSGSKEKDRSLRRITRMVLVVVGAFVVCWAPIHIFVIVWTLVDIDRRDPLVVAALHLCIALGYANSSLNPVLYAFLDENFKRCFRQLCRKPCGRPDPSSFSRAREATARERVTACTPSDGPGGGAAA
DNA topoisomerase, sequence (A0A2S9PM60 whole entry): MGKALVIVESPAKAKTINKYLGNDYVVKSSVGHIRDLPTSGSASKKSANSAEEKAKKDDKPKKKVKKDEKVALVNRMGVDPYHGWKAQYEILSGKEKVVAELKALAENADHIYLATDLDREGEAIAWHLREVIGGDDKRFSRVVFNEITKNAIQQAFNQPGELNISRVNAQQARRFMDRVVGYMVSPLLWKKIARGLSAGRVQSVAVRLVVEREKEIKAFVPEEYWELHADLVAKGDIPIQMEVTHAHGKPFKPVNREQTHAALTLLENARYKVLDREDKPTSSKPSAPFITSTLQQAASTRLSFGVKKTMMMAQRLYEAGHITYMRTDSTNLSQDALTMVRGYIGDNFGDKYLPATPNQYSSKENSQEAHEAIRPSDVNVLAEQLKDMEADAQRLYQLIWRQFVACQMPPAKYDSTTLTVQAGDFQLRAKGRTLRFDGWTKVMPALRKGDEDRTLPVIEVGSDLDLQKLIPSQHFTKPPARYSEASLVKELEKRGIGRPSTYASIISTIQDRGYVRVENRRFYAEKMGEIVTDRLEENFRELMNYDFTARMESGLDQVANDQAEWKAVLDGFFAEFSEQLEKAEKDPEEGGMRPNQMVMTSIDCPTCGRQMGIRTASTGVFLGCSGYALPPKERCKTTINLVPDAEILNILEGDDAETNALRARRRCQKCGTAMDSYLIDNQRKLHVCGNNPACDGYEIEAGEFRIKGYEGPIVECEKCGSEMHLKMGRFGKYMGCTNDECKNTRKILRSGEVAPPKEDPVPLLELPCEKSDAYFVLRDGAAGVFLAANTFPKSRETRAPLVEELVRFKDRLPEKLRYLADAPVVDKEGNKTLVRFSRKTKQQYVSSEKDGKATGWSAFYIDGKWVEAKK
Galanin receptor type 3, sequence (O60755 whole entry): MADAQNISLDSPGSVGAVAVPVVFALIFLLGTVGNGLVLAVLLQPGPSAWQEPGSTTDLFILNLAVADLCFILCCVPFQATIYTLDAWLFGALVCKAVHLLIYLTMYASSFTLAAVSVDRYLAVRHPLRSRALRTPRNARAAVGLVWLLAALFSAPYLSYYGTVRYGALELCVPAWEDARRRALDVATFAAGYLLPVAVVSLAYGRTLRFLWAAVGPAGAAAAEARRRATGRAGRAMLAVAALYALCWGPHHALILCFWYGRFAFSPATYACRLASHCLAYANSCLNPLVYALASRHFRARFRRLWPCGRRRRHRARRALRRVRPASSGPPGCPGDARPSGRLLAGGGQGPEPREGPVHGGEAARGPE
Beta-galactosidase, sequence (Q8VNN2 whole entry): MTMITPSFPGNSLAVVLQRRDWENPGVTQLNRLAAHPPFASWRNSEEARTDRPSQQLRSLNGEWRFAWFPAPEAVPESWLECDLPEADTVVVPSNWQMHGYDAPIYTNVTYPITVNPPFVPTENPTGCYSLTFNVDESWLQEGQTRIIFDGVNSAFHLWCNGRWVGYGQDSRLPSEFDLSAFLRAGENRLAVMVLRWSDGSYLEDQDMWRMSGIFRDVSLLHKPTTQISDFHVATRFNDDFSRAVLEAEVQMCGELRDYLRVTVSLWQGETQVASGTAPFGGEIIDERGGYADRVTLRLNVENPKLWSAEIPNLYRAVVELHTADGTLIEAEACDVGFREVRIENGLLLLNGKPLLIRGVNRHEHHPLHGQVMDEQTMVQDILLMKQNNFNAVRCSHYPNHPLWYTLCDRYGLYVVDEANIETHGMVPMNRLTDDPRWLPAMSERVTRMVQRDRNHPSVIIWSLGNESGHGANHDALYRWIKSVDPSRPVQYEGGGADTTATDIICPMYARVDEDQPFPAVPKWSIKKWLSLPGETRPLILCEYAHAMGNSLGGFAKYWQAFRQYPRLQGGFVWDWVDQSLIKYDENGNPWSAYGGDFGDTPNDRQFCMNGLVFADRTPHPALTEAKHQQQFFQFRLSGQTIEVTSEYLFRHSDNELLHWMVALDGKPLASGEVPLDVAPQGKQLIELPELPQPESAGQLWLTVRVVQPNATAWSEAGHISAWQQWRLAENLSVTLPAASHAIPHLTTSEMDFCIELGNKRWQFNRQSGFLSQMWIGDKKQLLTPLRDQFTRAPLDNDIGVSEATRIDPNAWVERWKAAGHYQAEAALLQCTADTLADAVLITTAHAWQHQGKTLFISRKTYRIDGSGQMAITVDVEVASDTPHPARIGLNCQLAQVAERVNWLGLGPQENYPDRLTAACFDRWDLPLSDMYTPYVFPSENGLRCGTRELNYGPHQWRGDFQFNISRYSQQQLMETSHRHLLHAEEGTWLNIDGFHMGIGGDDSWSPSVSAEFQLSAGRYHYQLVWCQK
G-protein coupled receptor 55, sequence (Q9Y2T6 whole entry): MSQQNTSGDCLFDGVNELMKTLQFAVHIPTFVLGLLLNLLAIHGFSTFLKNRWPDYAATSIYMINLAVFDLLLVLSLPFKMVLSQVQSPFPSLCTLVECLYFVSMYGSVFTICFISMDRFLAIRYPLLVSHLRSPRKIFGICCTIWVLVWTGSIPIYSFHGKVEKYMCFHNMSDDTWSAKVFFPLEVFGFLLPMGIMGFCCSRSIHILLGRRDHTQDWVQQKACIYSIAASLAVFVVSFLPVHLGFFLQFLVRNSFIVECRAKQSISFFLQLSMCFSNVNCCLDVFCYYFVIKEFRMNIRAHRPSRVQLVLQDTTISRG
Paired box protein Pax-8, sequence (Q06710 whole entry): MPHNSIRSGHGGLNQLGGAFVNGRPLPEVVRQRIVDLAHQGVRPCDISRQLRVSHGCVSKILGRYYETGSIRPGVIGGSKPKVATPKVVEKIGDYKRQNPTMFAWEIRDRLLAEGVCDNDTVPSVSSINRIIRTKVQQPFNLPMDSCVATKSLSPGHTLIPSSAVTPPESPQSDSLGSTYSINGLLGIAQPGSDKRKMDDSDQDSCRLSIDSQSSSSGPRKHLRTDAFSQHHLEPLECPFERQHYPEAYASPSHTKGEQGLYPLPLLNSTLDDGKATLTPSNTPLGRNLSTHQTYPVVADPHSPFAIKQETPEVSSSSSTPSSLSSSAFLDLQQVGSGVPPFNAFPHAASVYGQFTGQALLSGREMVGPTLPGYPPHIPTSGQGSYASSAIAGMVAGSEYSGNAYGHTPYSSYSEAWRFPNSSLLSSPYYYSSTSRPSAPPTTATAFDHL
Beta Lactamase, sequence (Q932Y6 whole entry): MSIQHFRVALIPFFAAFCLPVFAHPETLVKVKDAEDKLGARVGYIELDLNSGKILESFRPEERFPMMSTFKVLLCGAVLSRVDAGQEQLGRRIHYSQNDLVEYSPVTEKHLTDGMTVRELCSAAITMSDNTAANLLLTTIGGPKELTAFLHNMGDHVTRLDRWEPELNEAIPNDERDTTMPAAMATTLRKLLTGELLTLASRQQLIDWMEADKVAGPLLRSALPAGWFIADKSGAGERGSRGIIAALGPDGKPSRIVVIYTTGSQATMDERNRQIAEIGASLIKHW
Mu-type opioid receptor, sequence (P35372 whole entry): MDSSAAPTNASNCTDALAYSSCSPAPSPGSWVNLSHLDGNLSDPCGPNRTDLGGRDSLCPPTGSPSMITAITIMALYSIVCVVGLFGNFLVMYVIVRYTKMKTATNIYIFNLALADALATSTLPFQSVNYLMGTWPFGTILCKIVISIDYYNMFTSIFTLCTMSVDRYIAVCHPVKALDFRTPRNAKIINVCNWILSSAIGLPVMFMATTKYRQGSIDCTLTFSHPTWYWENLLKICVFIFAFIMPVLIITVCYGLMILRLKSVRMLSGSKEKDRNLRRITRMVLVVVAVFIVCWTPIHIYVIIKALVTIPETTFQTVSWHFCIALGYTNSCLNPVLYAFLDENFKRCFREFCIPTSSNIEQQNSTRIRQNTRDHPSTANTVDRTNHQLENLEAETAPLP

N#CC(C#N)=NNc1ccc(-n2ccc(C(F)(F)F)n2)cc1
AC50 (HEK293): 3.38 µM (active) | AC50 (Paired box protein Pax-8): 3.44 µM (active) | EC50 (BJ [1]): > 133 µM (inactive) | EC50 (BJ [2]): 13.6 µM (inconclusive) | EC50 (Protein RecA): 2.98 µM (active) | AC50 (INS1): 5.57 µM (active) | AC50 [3]: 2.03 µM (active) | EC50 (cells): > 29.9 µM (inactive) | EC50 [4]: 18.2 µM (inconclusive) | EC50 (BJ [5]): > 150 µM (not active) | IC50 (Galanin receptor type 3): > 1.11 µM (active) | EC50 (BJ [6]): 11.4 µM (active)

Cc1c(C(=O)OCC(=O)N(CC(C)C)c2c(N)n(Cc3ccccc3)c(=O)[nH]c2=O)oc2ccccc12
AC50 (DNA topoisomerase): 9.46 µM (active)

CNc1cc(Cl)c2nonc2c1[N+](=O)[O-]
EC50 [7]: 4.78 µM (inconclusive) | EC50 (Beta-galactosidase): > 31.5 µM (inactive) | EC50 (Protein RecA): 1.77 µM (active) | CC50 (HeLa): > 1.22 µM (active) | AC50 [3]: 5.31 µM (active) | IC50 (Beta Lactamase): 4.73 µM (active) | IC50 [8]: 10.4 µM (inactive) | EC50 [9]: 0.752 µM (active) | IC50 [10]: 2.96 µM (active) | IC50 [11]: 1.11 µM (active) | EC50 (Mu-type opioid receptor): > 32 µM (inactive) | EC50 [12]: > 32 µM (inactive) | IC50 (CHO): 1.68 µM (active) | IC50 [13]: 8.48 µM
